In the supplement of paper PMC12076712:

Legend:
Experiment in all cases: pIC50, kinobeads binding competition
STRADA = biological target: T1, STRADA (UniProt Q7RTN6)
T1 sequence (whole entry): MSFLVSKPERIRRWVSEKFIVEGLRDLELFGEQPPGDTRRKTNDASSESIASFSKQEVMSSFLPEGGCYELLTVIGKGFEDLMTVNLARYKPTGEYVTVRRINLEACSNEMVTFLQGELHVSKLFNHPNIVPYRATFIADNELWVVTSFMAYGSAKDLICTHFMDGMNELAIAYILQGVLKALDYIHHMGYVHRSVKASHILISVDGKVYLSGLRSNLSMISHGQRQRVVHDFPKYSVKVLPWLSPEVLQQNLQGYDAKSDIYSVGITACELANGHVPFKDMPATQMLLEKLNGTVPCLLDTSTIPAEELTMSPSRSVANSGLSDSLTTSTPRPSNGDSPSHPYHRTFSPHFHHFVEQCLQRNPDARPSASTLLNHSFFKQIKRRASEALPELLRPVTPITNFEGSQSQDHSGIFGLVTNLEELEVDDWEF
How it was run: (§1)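 To obtain pIC50, fold changes versus vehicle were fitted to logistic dose-response curves (R drc package) across biological duplicates. Protein binding to Kinobeads was quantified by TMT10 LC-MS/MS of digested bead-bound proteins. Treatments used nine concentrations with a top of 30 μM, applied to live Jurkat cells in 1:4 steps for 60 min at 37 °C before lysis, or to Jurkat lysate or a 1:1:1:1 HEK293/K-562/HepG2/placenta lysate mix in 1:5 steps for 60 min at 4 °C.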

CDK10 = CDK10 (UniProt Q15131)
CDK10, sequence (Q15131 whole entry): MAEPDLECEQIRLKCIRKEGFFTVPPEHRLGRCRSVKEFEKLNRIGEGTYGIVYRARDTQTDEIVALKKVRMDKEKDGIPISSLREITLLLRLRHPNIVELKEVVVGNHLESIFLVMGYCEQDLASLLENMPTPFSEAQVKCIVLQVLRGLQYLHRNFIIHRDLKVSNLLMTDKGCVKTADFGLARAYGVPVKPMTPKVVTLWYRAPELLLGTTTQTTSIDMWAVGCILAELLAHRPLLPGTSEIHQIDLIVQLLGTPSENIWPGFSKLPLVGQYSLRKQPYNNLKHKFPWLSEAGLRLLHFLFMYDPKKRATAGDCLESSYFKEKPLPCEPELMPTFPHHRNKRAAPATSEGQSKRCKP
How it was run: as §1

MASTL = biological target: T2, MASTL (UniProt Q96GX5)
T2 sequence (whole entry): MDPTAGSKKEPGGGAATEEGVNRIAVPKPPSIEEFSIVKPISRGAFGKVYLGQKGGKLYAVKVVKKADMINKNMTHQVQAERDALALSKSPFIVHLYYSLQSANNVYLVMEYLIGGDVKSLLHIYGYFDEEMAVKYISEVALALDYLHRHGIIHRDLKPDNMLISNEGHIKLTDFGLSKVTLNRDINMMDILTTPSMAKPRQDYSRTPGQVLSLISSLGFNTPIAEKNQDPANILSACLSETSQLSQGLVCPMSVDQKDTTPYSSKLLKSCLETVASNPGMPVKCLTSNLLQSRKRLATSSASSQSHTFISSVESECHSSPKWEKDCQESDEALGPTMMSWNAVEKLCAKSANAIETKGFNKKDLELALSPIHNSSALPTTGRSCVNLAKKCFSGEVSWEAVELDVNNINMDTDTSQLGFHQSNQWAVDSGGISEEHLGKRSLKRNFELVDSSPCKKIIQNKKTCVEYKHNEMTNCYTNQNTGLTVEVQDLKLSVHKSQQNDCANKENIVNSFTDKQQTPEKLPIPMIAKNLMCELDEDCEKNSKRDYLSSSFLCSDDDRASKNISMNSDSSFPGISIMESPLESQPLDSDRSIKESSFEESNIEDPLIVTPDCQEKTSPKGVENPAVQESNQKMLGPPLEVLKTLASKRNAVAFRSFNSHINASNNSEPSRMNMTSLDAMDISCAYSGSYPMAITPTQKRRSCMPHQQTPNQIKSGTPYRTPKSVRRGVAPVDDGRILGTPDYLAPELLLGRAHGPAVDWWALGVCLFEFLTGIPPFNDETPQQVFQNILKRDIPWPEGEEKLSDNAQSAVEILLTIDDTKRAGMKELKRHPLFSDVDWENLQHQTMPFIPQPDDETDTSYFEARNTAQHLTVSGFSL
How it was run: as §1

UniProt Q14164 = biological target: T3, UniProt Q14164
T3 sequence (whole entry): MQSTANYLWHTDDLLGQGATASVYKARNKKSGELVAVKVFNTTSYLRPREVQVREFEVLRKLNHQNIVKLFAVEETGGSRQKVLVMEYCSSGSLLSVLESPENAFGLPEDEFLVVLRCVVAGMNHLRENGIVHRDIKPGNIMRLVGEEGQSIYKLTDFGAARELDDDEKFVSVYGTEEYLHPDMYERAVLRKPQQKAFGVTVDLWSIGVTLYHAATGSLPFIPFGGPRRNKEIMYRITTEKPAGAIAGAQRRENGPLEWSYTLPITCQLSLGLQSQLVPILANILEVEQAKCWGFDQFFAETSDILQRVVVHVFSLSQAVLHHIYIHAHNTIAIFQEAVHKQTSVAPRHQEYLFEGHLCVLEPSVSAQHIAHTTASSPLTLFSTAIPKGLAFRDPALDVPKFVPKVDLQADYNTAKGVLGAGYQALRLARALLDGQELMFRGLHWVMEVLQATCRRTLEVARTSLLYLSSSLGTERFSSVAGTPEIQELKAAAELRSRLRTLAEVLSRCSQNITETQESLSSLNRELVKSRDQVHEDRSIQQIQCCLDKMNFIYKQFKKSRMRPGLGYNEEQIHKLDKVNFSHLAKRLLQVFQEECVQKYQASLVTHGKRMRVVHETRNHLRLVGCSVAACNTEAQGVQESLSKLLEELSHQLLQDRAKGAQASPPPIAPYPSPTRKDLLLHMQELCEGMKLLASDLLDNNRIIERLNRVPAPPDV
How it was run: as §1

pIC50 (STRADA; cell material: Lysate mix) | pIC50 (CDK10; cell material: Lysate mix) | pIC50 (MASTL; cell material: Lysate mix) | pIC50 (UniProt Q14164; cell material: Lysate mix) | SMILES | pIC50 (STRADA; cell material: Jurkat cells) | pIC50 (STRADA; cell material: Jurkat lysate) | pIC50 (CDK10; cell material: Jurkat cells) | pIC50 (MASTL; cell material: Jurkat cells) | pIC50 (UniProt Q14164; cell material: Jurkat cells) | pIC50 (UniProt Q14164; cell material: Jurkat lysate) | pIC50 (CDK10; cell material: Jurkat lysate) | pIC50 (MASTL; cell material: Jurkat lysate)
< 4.52 | < 4.52 | < 4.52 | < 4.52 | Cc1cc(Nc2cc(C(=O)NCCNC(=O)OC3CC/C=C/CCC3)nc(N3CCN(Cc4ccc(S(=O)(=O)F)cc4)CC3)n2)n[nH]1 (stereo not given) | – | – | – | – | – | – | – | –
< 4.52 | < 4.52 | – | < 4.52 | O=C(NCCNC(=O)c1cc(Nc2cc(C3CC3)[nH]n2)nc(N2CCN(Cc3ccc(S(=O)(=O)F)cc3)CC2)n1)OC1CC/C=C/CCC1 (stereo not given) | 5.78 | < 4.52 | 6.06 | 6.1 | 5.28 | < 4.52 | – | –
5.29 | 5.29 | 6.85 | 5.08 | CCNC(=O)c1cc(Nc2cc(C3CC3)[nH]n2)nc(N2CCN(Cc3ccc(S(=O)(=O)F)cc3)CC2)n1 | – | – | – | – | – | – | – | –

Continued, molecule first:

SMILES | pIC50 (STRADA; cell material: Lysate mix) | pIC50 (CDK10; cell material: Lysate mix) | pIC50 (MASTL; cell material: Lysate mix) | pIC50 (UniProt Q14164; cell material: Lysate mix) | pIC50 (STRADA; cell material: Jurkat cells) | pIC50 (STRADA; cell material: Jurkat lysate) | pIC50 (CDK10; cell material: Jurkat cells) | pIC50 (MASTL; cell material: Jurkat cells) | pIC50 (UniProt Q14164; cell material: Jurkat cells) | pIC50 (UniProt Q14164; cell material: Jurkat lysate) | pIC50 (CDK10; cell material: Jurkat lysate) | pIC50 (MASTL; cell material: Jurkat lysate)
C#CCNC(=O)c1cc(Nc2cc(C)[nH]n2)nc(N2CCN(Cc3ccc(S(=O)(=O)F)cc3)CC2)n1 | – | – | – | < 4.52 | – | – | – | – | – | – | – | –
C#CCNC(=O)c1cc(Nc2cc(C3CC3)[nH]n2)nc(N2CCN(Cc3ccc(S(=O)(=O)F)cc3)CC2)n1 | 5.7 | 5.82 | 6.74 | 5.25 | 5.99 | 5.36 | 6.16 | 6.15 | 6 | 4.89 | 6.04 | 6.03
